This is an account of results in patent publication US12605402B2, “Therapeutic uses of oxidizing hypotonic acid solutions” (APR Applied Pharma Research SA, priority 2019, dated 2026).

Where two headings read alike, the source gives them in different places.

For one data set, the system named is SARS-CoV-2. The format is cell-based. The settings on record: concentration 90% (solution), 63% (ethanol); for Virus Titer: virus control 3.5.

Take `CCO` [Ethanol]: in the data set with SARS-CoV-2 (Contact Time 3 min), the “LRV (log reduction value) compared to the virus control” value is recorded as above 1.8 and the “Virus Titer” value is listed as <1.7 Log10 CCID50 of virus per 0.1 mL. For the same molecule, in the data set on SARS-CoV-2 (Contact Time <1 min), the “LRV (log reduction value) compared to the virus control” value is on record as above 1.8 and the “Virus Titer” value is listed as <1.7 Log10 CCID50 of virus per 0.1 mL. Besides, the toxicity to cells entry in the data set with Vero 76 cells is reported as “toxic to cells”.
